Assay results published in patent publication US10501479B2, “Benzenesulfonyl-asymmetric ureas and medical uses thereof” (HELSINN HEALTHCARE SA, priority 2016, dated 2019).
Several values for one entry are separate records, joined by “and”; a condition that tells them apart may be missing. Identical values can stand only once.

Tests used:
[1] = target: T1, GHSR-1a (HEK293/GHSR1a cell line) (Homo sapiens, UniProt Q92847); test: Ghrelin antagonist potency (IC50) with calcium FLIPR assay, ghrelin 10 nM; format: cell-based; conditions: ghrelin antagonist potency, read-out: IC50 (Activity)
T1 construct: expressed in transfected cells; host or cells: HEK293/GHSR1a cell line
T1 sequence (Q92847 whole entry): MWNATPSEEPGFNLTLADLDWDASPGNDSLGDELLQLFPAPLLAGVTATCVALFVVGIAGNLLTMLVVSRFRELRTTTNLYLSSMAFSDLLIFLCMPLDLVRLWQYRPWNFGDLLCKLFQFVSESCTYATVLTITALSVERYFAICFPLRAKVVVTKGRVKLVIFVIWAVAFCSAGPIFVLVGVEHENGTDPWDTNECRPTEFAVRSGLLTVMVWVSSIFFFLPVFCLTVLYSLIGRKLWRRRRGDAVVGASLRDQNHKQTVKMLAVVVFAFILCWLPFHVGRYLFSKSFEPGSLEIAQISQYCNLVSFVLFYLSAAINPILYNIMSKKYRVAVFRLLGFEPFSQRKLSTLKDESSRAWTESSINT
How it was run: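 Fluorescence read-out of intracellular calcium over 2 min. Agonist EC50 came from compound added alone at t=20 sec. Antagonist IC50 came from the reduction of the response to 10 nM ghrelin co-added with compound at t=20 sec. Both were fitted from dose-response data.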

[2] = Metabolic stability in human liver microsomes; format: in vitro ADME
Experimental: (§1) Metabolic Stability Study
(§2) The metabolic stability of compounds in human, dog, rat and mouse liver microsomes was performed according the experimental conditions reported below:
(§3) • a) Prepare the following 5 stock solutions: • 1. Test compound stock solutions: dilute 10 mM solution of dextromethorphan (Dtr) in DMSO, 10 mM solution of diphenhydramine (DPA) in DMSO, 10 mM solution of omeprazole (Ome) in DMSO, 10 mM solution of verapamil (Ver) in DMSO, and 10 mM of an inverse agonist compound in DMSO to 0.25 mM solution each with acetonitrile/water (70/30). • 2. Buffer: 100 mM potassium phosphate Buffer (PBS) at pH 7.4 • 3. Liver microsomes (20 mg/ml): Thaw in 37° C. water bath quickly • 4. 2000 μL: of NADPH regenerating system (1.3 mM). Place this system on ice before use:
(§4) • 5. […] The test compound concentration in the wells, measured by LC-MS/MS, represents the concentration at time=0. • f) To determine the test compound concentration when t≠0, pre-incubate the NADPH regenerating system and the incubation plate containing the remaining 320 μL of incubation mixture (microsomes protein and test compound) for 5 minutes at 37° C. • g) Start the incubation reaction by adding 80 μL NADPH regenerating system to each well containing the remaining 320 μL incubation mixture. • h) After 10 min., 30 min., and 90 min. of incubation at 37° C., transfer 100 μL of the incubation mixture (microsomes protein, test compound, and NADPH) into the wells of a stop plate pre-filled with 300 μL of the cold quench solution. Shake well. • i) Centrifuge the stop plate at 5000×g for 10 minutes. Collect and dilute the supernatant 3 times with distilled water. Sample and analyze the test compound concentration for all the wells by LC-MS/MS. Animal PK Studies via i.v. (intravenous), p.o. (orally) and s.c. (subcutaneous) administrations

[3] = Metabolic stability in mouse liver microsomes; format: in vitro ADME
Experimental: as §1, §2, §3, §4

[4] = target: T2, recombinant human ghrelin receptor (HEK293/GRLN) (Homo sapiens, UniProt Q92847); test: Ghrelin inverse agonist potency (EC50) with IP-1 (IP-One HTRF) assay; format: cell-based; conditions: inverse agonist potency, IP-1 assay; read-out: EC50 (Activity)
T2 construct: expressed in transfected cells
T2 sequence (Q92847 whole entry): as above
How it was run: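 IP-1 accumulation was measured by HTRF (IP1-d2/Tb-cryptate, 620/665 nm read after 1 hour at room temperature) following 1 hour of compound treatment at 37° C. Cells were HEK293 stably expressing human ghrelin receptor, plated a day earlier on Matrigel. Inverse agonist potency was reported as EC50.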

SMILES	IC50 [1] [nM]	Metabolic Stability Study H = human [2]	Metabolic Stability Study M = mouse [3]	EC50 [4]
CN(C)C(C)(C)Cc1ccc(NS(=O)(=O)c2ccc(NC(=O)NCc3ccccc3)cc2)cc1 [H1009, 4-(3-benzylureido)-N-(4-(2-(dimethylamino)-2-methylpropyl)phenyl) benzenesulfonamide]	252	13.2 µL/min/mg	33.8 µL/min/mg	32.8 nM
CCN1CCc2cc(NS(=O)(=O)c3ccc(NC(=O)N[C@@H](C)c4ccc(OC)c(Cl)c4Cl)cc3)ccc2C1 [H1018, (S)-4-(3-(1-(2,3-dichloro-4-methoxyphenyl)ethyl)ureido)-N-(2-ethyl-1,2,3,4-tetrahydroisoquinolin-6-yl)benzenesulfonamide]	99.8	< 10 µL/min/mg	46.3 µL/min/mg	13.7 nM
C[C@H](NC(=O)Nc1ccc(S(=O)(=O)Cc2ccc3c(c2)CNC3)cc1)c1cccc(Cl)c1Cl.Cl [H1056, (S)-1-(1-(2,3-dichlorophenyl)ethyl)-3-(4-((isoindolin-5-ylmethyl)sulfonyl)phenyl)urea]	5.8	16.4 µL/min/mg	13.5 µL/min/mg	2.6 nM
Cc1oc(=O)oc1CN1CCc2cc(CS(=O)(=O)c3ccc(NC(=O)N[C@@H](C)c4cccc(Cl)c4Cl)cc3)ccc2C1 [H1067, (S)-1-(1-(2,3-dichlorophenyl)ethyl)-3-(4-(((2-((5-methyl-2-oxo-1,3-dioxol-4-yl)methyl)-1,2,3,4-tetrahydroisoquinolin-6-yl)methyl)sulfonyl)phenyl)urea]	14	326.2 µL/min/mg	289 µL/min/mg	4.5 nM
Cc1oc(=O)oc1CN1CCc2cc(NS(=O)(=O)c3ccc(NC(=O)N[C@@H](C)c4cccc(Cl)c4Cl)cc3)ccc2C1 [H1068, (S)-4-(3-(1-(2,3-dichlorophenyl)ethyl)ureido)-N-(2-((5-methyl-2-oxo-1,3-dioxol-4-yl)methyl)-1,2,3,4-tetrahydroisoquinolin-6-yl)benzenesulfonamide]	26.3	199.7 µL/min/mg	196.4 µL/min/mg	8.4 nM
C[C@H](NC(=O)Nc1ccc(S(=O)(=O)Nc2ccc(CC(C)(C)O)cc2)cc1)c1cccc(Cl)c1Cl [H1076, (S)-4-(3-(1-(2,3-dichlorophenyl)ethyl)ureido)-N-(4-(2-hydroxy-2-methylpropyl)phenyl) benzenesulfonamide]	515	91.4 µL/min/mg	73.9 µL/min/mg	57.7 nM
C[C@H](NC(=O)Nc1ccc(S(=O)(=O)Nc2ccc(CCO)cc2)cc1)c1cccc(Cl)c1Cl [H1094, (S)-4-(3-(1-(2,3-dichlorophenyl)ethyl)ureido)-N-(4-(2-hydroxyethyl)phenyl) benzenesulfonamide]	488	55.1 µL/min/mg	100.8 µL/min/mg	118 nM
C[C@H](NC(=O)Nc1ccc(S(=O)(=O)Nc2cnc(N)nc2)cc1)c1cccc(Cl)c1Cl [H1108]	422	38.7 µL/min/mg	47.5 µL/min/mg	117 nM
C[C@H](NC(=O)Nc1ccc(S(=O)(=O)Nc2ccnc(N)n2)cc1)c1cccc(Cl)c1Cl [H1125, (S)-N-(2-aminopyrimidin-4-yl)-4-(3-(1-(2,3-dichlorophenyl)ethyl)ureido) benzenesulfonamide]	893	10.7 µL/min/mg	14.9 µL/min/mg	93.3 nM
C[C@H](NC(=O)Nc1ccc(S(=O)(=O)Nc2ccc(N)cn2)cc1)c1cccc(Cl)c1Cl.Cl [H1127, (S)-N-(5-aminopyridin-2-yl)-4-(3-(1-(2,3-dichlorophenyl)ethyl)ureido) benzenesulfonamide]	861	41 µL/min/mg	59.5 µL/min/mg	94.7 nM
COc1ccc(C(C)NC(=O)Nc2ccc(S(=O)(=O)Cc3ccc4c(c3)CNC4)cc2)c2ccccc12 (centres unmarked) [H1154, 1-(4-((isoindolin-5-ylmethyl)sulfonyl)phenyl)-3-(1-(4-methoxynaphthalen-1-yl)ethyl)urea]	126	19.2 µL/min/mg	22.9 µL/min/mg	29.8 nM and 26.8 nM
CC(NC(=O)Nc1ccc(S(=O)(=O)Nc2ccc3c(c2)CNC3)cc1)c1ccccc1.Cl (centres unmarked) [H1156, N-(isoindolin-5-yl)-4-(3-(1-phenylethyl)ureido) benzenesulfonamide]	10.3	18.1 µL/min/mg	12.9 µL/min/mg	4.26 nM
CC(NC(=O)N(O)c1ccc(S(=O)(=O)Nc2ccc3c(c2)CNC3)cc1)c1cccc2ccccc12 (centres unmarked) [H1166, 4-(1-hydroxy-3-(1-(naphthalen-1-yl)ethyl)ureido)-N-(isoindolin-5-yl)benzenesulfonamide]	9	19.9 µL/min/mg	14.5 µL/min/mg	7.1 nM
Cl.O=C(NCc1ccccc1)Nc1ccc(S(=O)(=O)Cc2ccc3c(c2)CNC3)cc1 [H1179, 1-benzyl-3-(4-((isoindolin-5-ylmethyl)sulfonyl)phenyl)urea]	143	14.9 µL/min/mg	< 10 µL/min/mg	37.4 nM
CN1Cc2ccc(CS(=O)(=O)c3ccc(NC(=O)NCc4ccccc4)cc3)cc2C1 [H1193, 1-benzyl-3-(4-(((2-methylisoindolin-5-yl)methyl)sulfonyl)phenyl)urea]	324	49.8 µL/min/mg	43.7 µL/min/mg	64 nM
CC(NC(=O)Nc1ccc(S(=O)(=O)Cc2ccc3c(c2)CN(Cc2ccccc2)C3)cc1)c1ccccc1 (centres unmarked) [H1219, 1-(4-(((2-benzylisoindolin-5-yl)methyl)sulfonyl)phenyl)-3-(1-phenylethyl)urea]	7.77	H > 500 M > 500 R = not reported D = not reported μL/min/mg	H > 500 M > 500 R = not reported D = not reported μL/min/mg	163 nM
CCN1Cc2ccc(CS(=O)(=O)c3ccc(NC(=O)NC(C)c4ccccc4)cc3)cc2C1 (centres unmarked) [H1221, 1-(4-(((2-ethylisoindolin-5-yl)methyl)sulfonyl)phenyl)-3-(1-phenylethyl)urea]	8.1	111.2 µL/min/mg	107.7 µL/min/mg	38.7 nM
CN1Cc2ccc(CS(=O)(=O)c3ccc(NC(=O)NC(c4ccccc4)C(F)(F)F)cc3)cc2C1 (centres unmarked) [H1227, 1-(4-(((2-methylisoindolin-5-yl)methyl)sulfonyl)phenyl)-3-(2,2,2-trifluoro-1-phenylethyl)urea]	38.4	99.4 µL/min/mg	79.9 µL/min/mg	175 nM
CCN1Cc2ccc(C(C)S(=O)(=O)c3ccc(NC(=O)NC(C)c4ccccc4)cc3)cc2C1 (centres unmarked) [H1234, 1-(4-((1-(2-ethylisoindolin-5-yl)ethyl)sulfonyl)phenyl)-3-(1-phenylethyl)urea]	42.6	149.8 µL/min/mg	122.7 µL/min/mg	15.4 nM
CCC(NC(=O)Nc1ccc(S(=O)(=O)Cc2ccc3c(c2)CN(C)C3)cc1)c1ccccc1 (centres unmarked) [H1235, 1-(4-(((2-methylisoindolin-5-yl)methyl)sulfonyl)phenyl)-3-(1-phenylpropyl)urea]	32	102.4 µL/min/mg	87.1 µL/min/mg	6.1 nM
